Laboratory results taken from patent US12552766B2, “Pesticidally active azole amide compounds” (SYNGENTA CROP PROTECTION AG, priority 2019, dated 2026).

How the values were obtained:
Format in all cases: in vivo
[1] = system: Plutella xylostella (Diamondback Moth); assay: Example B13: Plutella xylostella, artificial diet, 96-well; settings: 216 h, application rate of 500 ppm, eggs/L1 larvae, 9 days after infestation
Method: 96-well microtiter plates containing artificial diet were treated with aqueous test solutions, prepared from 10′000 ppm DMSO stock solutions, by a liquid handling robot. After drying, eggs (˜30 per well) were infested onto a netted lid which was suspended above the diet. The eggs hatch and L1 larvae move down to the diet. The samples were assessed for mortality 9 days after infestation.

[2] = system: Euschistus heros (Neotropical Brown Stink Bug); assay: Example B2: Euschistus heros, spray on soybean leaves; settings: 120 h, application rate of 200 ppm, N2 nymphs, 5 days after infestation, read-out: control in at least one of the two categories (mortality or growth inhibition)
Method: Soybean leaves on agar in 24-well microtiter plates were sprayed with aqueous test solutions prepared from 10′000 ppm DMSO stock solutions. After drying the leaves were infested with N2 nymphs. The samples were assessed for mortality and growth inhibition in comparison to untreated samples 5 days after infestation.

[3] = system: Plutella xylostella (Diamond Back Moth); assay: Example B5: Plutella xylostella, artificial diet, 24-well; settings: 192 h, application rate of 200 ppm, eggs, 8 days after infestation, read-out: control in at least one of the two categories (mortality or growth inhibition)
Method: 24-well microtiter plates with artificial diet were treated with aqueous test solutions prepared from 10′000 ppm DMSO stock solutions by pipetting. After drying, Plutella eggs were pipetted through a plastic stencil onto a gel blotting paper and the plate was closed with it. The samples were assessed for mortality and growth inhibition in comparison to untreated samples 8 days after infestation.

[4] = system: Diabrotica Balteata (Corn Root Worm); assay: Example B1: Diabrotica balteata, spray on maize sprouts; settings: 96 h, application rate of 200 ppm, L2 larvae, 4 days after infestation, read-out: control in at least one of the two categories (mortality or growth inhibition)
In short: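 Spray test: maize sprouts on agar, aqueous dilutions of 10′000 ppm DMSO stock; after drying, 6–10 L2 larvae/well. Read-out at 4 d post-infestation: mortality and growth inhibition vs untreated.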

[5] = system: Spodoptera littoralis (Egyptian Cotton Leaf Worm); assay: Example B9: Spodoptera littoralis, spray on cotton leaf discs; settings: foliar, 72 h, application rate of 200 ppm, L1 larvae, 3 days after infestation, read-out: control in at least one of the three categories (mortality, anti-feedant effect, or growth inhibition)
In short: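 Cotton leaf discs on agar were sprayed with aqueous test solutions made from 10′000 ppm DMSO stocks, dried, then infested with five L1 larvae. Mortality, anti-feeding effect and growth inhibition were scored against untreated discs 3 days after infestation; control means any category exceeds untreated.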

[6] = system: Chilo suppressalis (Striped Rice Stemborer); assay: Example B4: Chilo suppressalis, artificial diet; settings: 144 h, application rate of 200 ppm, L2 larvae, 6 days after infestation, read-out: control in at least one of the three categories (mortality, anti-feedant effect, or growth inhibition)
In short: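 Artificial diet treated with aqueous dilutions of DMSO stocks (10'000 ppm stock), dried, then infested with 6-8 L2 larvae per well. Mortality, anti-feeding and growth inhibition scored against untreated samples 6 days after infestation. Control counted when any category exceeds untreated.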

[7] = system: Myzus persicae (Green Peach Aphid); assay: Example B12: Myzus persicae, sucrose solution, 96-well; settings: 120 h, application rate of 50 ppm, 5 days after infestation
Method: Test compounds prepared from 10′000 ppm DMSO stock solutions were applied by a liquid handling robot into 96-well microtiter plates and mixed with a sucrose solution. Parafilm was stretched over the 96-well microtiter plate and a plastic stencil with 96 holes was placed onto the plate. Aphids were sieved into the wells directly onto the Parafilm. The infested plates were closed with a gel blotting card and a second plastic stencil and then turned upside down. The samples were assessed for mortality 5 days after infestation.

CC(NC(=O)c1cc(C(F)F)cc(C(F)(F)F)c1)c1nc(Br)nn1-c1ccc(OCC(F)F)cn1 (stereo not drawn) [Compound P52, N-[1-[5-bromo-2-[5-(2,2-difluoroethoxy)-2-pyridyl]-1,2,4-triazol-3-yl]ethyl]-3-(difluoromethyl)-5-(trifluoromethyl) benzamide]
≥ 80%: mortality at 500 ppm [1] | percent control (mortality or growth inhibition) at 200 ppm [2] | percent control (mortality or growth inhibition) at 200 ppm [3] | percent control (mortality or growth inhibition) at 200 ppm [4] | percent control (mortality, anti-feedant effect or growth inhibition) at 200 ppm [5] | percent control (mortality, anti-feedant effect or growth inhibition) at 200 ppm [6]

CC(NC(=O)c1cc(C(F)F)cc(C(F)(F)F)c1)c1nc(Br)nn1-c1ncc(OCC(F)F)cn1 (stereo not drawn) [Compound P40, N-[1-[5-bromo-2-[5-(2,2-difluoroethoxy)pyrimidin-2-yl]-1,2,4-triazol-3-yl]ethyl]-3-(difluoromethyl)-5-(trifluoromethyl) benzamide]
≥ 80%: mortality at 500 ppm [1] | percent control (mortality or growth inhibition) at 200 ppm [2] | percent control (mortality or growth inhibition) at 200 ppm [3] | percent control (mortality or growth inhibition) at 200 ppm [4] | percent control (mortality, anti-feedant effect or growth inhibition) at 200 ppm [5] | percent control (mortality, anti-feedant effect or growth inhibition) at 200 ppm [6]

CC(NC(=O)c1cc(OCC(F)F)cc(C(F)(F)F)c1)c1nc(Br)nn1-c1ncc(OCC(F)F)cn1 (stereo not drawn) [Compound P47, N-[1-[5-bromo-2-[5-(2,2-difluoroethoxy)pyrimidin-2-yl]-1,2,4-triazol-3-yl]ethyl]-3-(2,2-difluoroethoxy)-5-(trifluoromethyl) benzamide]
≥ 80%: mortality at 500 ppm [1] | mortality at 50 ppm [7] | percent control (mortality or growth inhibition) at 200 ppm [3] | percent control (mortality, anti-feedant effect or growth inhibition) at 200 ppm [5] | percent control (mortality, anti-feedant effect or growth inhibition) at 200 ppm [6]

CC(=O)c1nc(C(C)NC(=O)c2cc(C(F)(F)F)cc(C(F)(F)F)c2)n(-c2ccc(C#N)cn2)n1 (stereo not drawn) [Compound P57, N-[1-[5-acetyl-2-(5-cyano-2-pyridyl)-1,2,4-triazol-3-yl]ethyl]-3,5-bis(trifluoromethyl) benzamide]
≥ 80%: mortality at 500 ppm [1] | percent control (mortality or growth inhibition) at 200 ppm [3] | percent control (mortality or growth inhibition) at 200 ppm [4] | percent control (mortality, anti-feedant effect or growth inhibition) at 200 ppm [5] | percent control (mortality, anti-feedant effect or growth inhibition) at 200 ppm [6]

CC(NC(=O)c1cc(Cl)cc(C(F)(F)F)c1)c1nc(Br)nn1-c1ncc(OCC(F)(F)F)cn1 (stereo not drawn) [Compound P43, N-[1-[5-bromo-2-[5-(2,2,2-trifluoroethoxy)pyrimidin-2-yl]-1,2,4-triazol-3-yl]ethyl]-3-chloro-5-(trifluoromethyl) benzamide]
≥ 80%: mortality at 500 ppm [1] | mortality at 50 ppm [7] | percent control (mortality or growth inhibition) at 200 ppm [3] | percent control (mortality or growth inhibition) at 200 ppm [4] | percent control (mortality, anti-feedant effect or growth inhibition) at 200 ppm [5] | percent control (mortality, anti-feedant effect or growth inhibition) at 200 ppm [6]

CC(NC(=O)c1cc(C(F)F)cc(C(F)(F)F)c1)c1nc(Br)nn1-c1ccc(C#N)cn1 (stereo not drawn) [Compound P8, N-[1-[5-bromo-2-(5-cyano-2-pyridyl)-1,2,4-triazol-3-yl]ethyl]-3-(difluoromethyl)-5-(trifluoromethyl) benzamide]
≥ 80%: mortality at 500 ppm [1] | percent control (mortality or growth inhibition) at 200 ppm [3] | percent control (mortality or growth inhibition) at 200 ppm [4] | percent control (mortality, anti-feedant effect or growth inhibition) at 200 ppm [5] | percent control (mortality, anti-feedant effect or growth inhibition) at 200 ppm [6]

CC(NC(=O)c1cc(OCC(F)(F)F)cc(C(F)(F)F)c1)c1nc(Br)nn1-c1ncc(OCC(F)(F)F)cn1 (stereo not drawn) [Compound P46, N-[1-[5-bromo-2-[5-(2,2,2-trifluoroethoxy)pyrimidin-2-yl]-1,2,4-triazol-3-yl]ethyl]-3-(2,2,2-trifluoroethoxy)-5-(trifluoromethyl) benzamide]
≥ 80%: mortality at 500 ppm [1] | percent control (mortality or growth inhibition) at 200 ppm [3] | percent control (mortality or growth inhibition) at 200 ppm [4] | percent control (mortality, anti-feedant effect or growth inhibition) at 200 ppm [5] | percent control (mortality, anti-feedant effect or growth inhibition) at 200 ppm [6]

CC(NC(=O)c1cc(OCC(F)(F)F)cc(C(F)(F)F)c1)c1nc(Br)nn1-c1ncc(OC(F)F)cn1 (stereo not drawn) [Compound P4, N-[1-[5-bromo-2-[5-(difluoromethoxy)pyrimidin-2-yl]-1,2,4-triazol-3-yl]ethyl]-3-(2,2,2-trifluoroethoxy)-5-(trifluoromethyl) benzamide]
≥ 80%: mortality at 500 ppm [1] | percent control (mortality or growth inhibition) at 200 ppm [3] | percent control (mortality or growth inhibition) at 200 ppm [4] | percent control (mortality, anti-feedant effect or growth inhibition) at 200 ppm [5] | percent control (mortality, anti-feedant effect or growth inhibition) at 200 ppm [6]

CC(NC(=O)c1cc(Cl)cc(C(F)(F)F)c1)c1nc(Br)nn1-c1ccc(OCC(F)F)cn1 (stereo not drawn) [Compound P49, N-[1-[5-bromo-2-[5-(2,2-difluoroethoxy)-2-pyridyl]-1,2,4-triazol-3-yl]ethyl]-3-chloro-5-(trifluoromethyl) benzamide]
≥ 80%: mortality at 500 ppm [1] | percent control (mortality or growth inhibition) at 200 ppm [3] | percent control (mortality or growth inhibition) at 200 ppm [4] | percent control (mortality, anti-feedant effect or growth inhibition) at 200 ppm [5] | percent control (mortality, anti-feedant effect or growth inhibition) at 200 ppm [6]

CC(NC(=O)c1cc(Br)cc(C(F)(F)F)c1)c1nc(Br)nn1-c1ccc(C#N)cn1 (stereo not drawn) [Compound P30, 3-bromo-N-[1-[5-bromo-2-(5-cyano-2-pyridyl)-1,2,4-triazol-3-yl]ethyl]-5-(trifluoromethyl) benzamide]
≥ 80%: mortality at 500 ppm [1] | percent control (mortality or growth inhibition) at 200 ppm [3] | percent control (mortality or growth inhibition) at 200 ppm [4] | percent control (mortality, anti-feedant effect or growth inhibition) at 200 ppm [5] | percent control (mortality, anti-feedant effect or growth inhibition) at 200 ppm [6]

CC(NC(=O)c1cc(OC(F)F)cc(C(F)(F)F)c1)c1nc(Br)nn1-c1ncc(OCC(F)F)cn1 (stereo not drawn) [Compound P23, N-[1-[5-bromo-2-[5-(2,2-difluoroethoxy)pyrimidin-2-yl]-1,2,4-triazol-3-yl]ethyl]-3-(difluoromethoxy)-5-(trifluoromethyl)be nzamide]
≥ 80%: mortality at 500 ppm [1] | mortality at 50 ppm [7] | percent control (mortality or growth inhibition) at 200 ppm [3] | percent control (mortality or growth inhibition) at 200 ppm [4] | percent control (mortality, anti-feedant effect or growth inhibition) at 200 ppm [5] | percent control (mortality, anti-feedant effect or growth inhibition) at 200 ppm [6]

CC(NC(=O)c1cc(Cl)cc(C(F)(F)F)c1)c1nc(Br)nn1-c1ccc(OC(F)F)cn1 (stereo not drawn) [Compound P26, N-[1-[5-bromo-2-[5-(difluoromethoxy)-2-pyridyl]-1,2,4-triazol-3-yl]ethyl]-3-chloro-5-(trifluoromethyl) benzamide]
≥ 80%: percent control (mortality or growth inhibition) at 200 ppm [2] | percent control (mortality or growth inhibition) at 200 ppm [3] | percent control (mortality or growth inhibition) at 200 ppm [4] | percent control (mortality, anti-feedant effect or growth inhibition) at 200 ppm [5] | percent control (mortality, anti-feedant effect or growth inhibition) at 200 ppm [6]

CC(NC(=O)c1cc(Br)cc(C(F)(F)F)c1)c1nc(Br)nn1-c1ncc(OCC(F)(F)F)cn1 (stereo not drawn) [Compound P41, 3-bromo-N-[1-[5-bromo-2-[5-(2,2,2-trifluoroethoxy)pyrimidin-2-yl]-1,2,4-triazol-3-yl]ethyl]-5-(trifluoromethyl) benzamide]
≥ 80%: mortality at 500 ppm [1] | percent control (mortality or growth inhibition) at 200 ppm [3] | percent control (mortality or growth inhibition) at 200 ppm [4] | percent control (mortality, anti-feedant effect or growth inhibition) at 200 ppm [5] | percent control (mortality, anti-feedant effect or growth inhibition) at 200 ppm [6]
